Results taken from publication PMC8397291 (2021).

Legend:
Assay in all cases: competitive native PAGE, 2a staining
Details in all cases: 100 mM KCl; TBE; 100 μM competitor with 20 μM c-MYC Pu22; 5 μM 2a
[1] = tested on: GC-rich ds-DNA (DNA, duplex) TGAGGGTGGGTAGGGTGGGTAA/TTACCCACCCTACCCACCCTCA
[2] = tested on: s.c. ds-DNA (DNA, duplex) CAATCGGATCGAATTCGATCCGATTG
[3] = tested on: TBA (DNA, G4) GGTTGGTGTGGTTGG

Measured: binding

CCN(CC)c1ccc2cc(C(=N)N)c(=O)oc2c1
no: all assays above
